Measurements as given in paper PMC8456977, “Inclusion Complexes of Gold(I)‐Dithiocarbamates with β‐Cyclodextrin: A Journey from Drug Repurposing towards Drug Discovery” (Chemistry (Weinheim an Der Bergstrasse, Germany), 2021).

Tests used:
Calu-6 cells = assay: Quantification of drug sensitivity (CellTiter-Blue), Calu-6; format: cell-based; conditions: Calu-6 (NSCLC), 72 h, 30-fold excess 2-hydroxypropyl-β-cyclodextrin, combination DSF/ATM 1:1
Procedure: (§1) Quantification of drug sensitivity (Figure 2A): Cell lines (including HT‐29) were obtained from ATCC or as gifts from other research groups at the DKFZ and checked for mycoplasma contamination and authenticity before use. Cell lines were seeded in 96‐well plates in RPMI‐1640 medium, supplemented with 10 % BCS (bovine calf serum) and 1 % Pen/Strep at a density of 2×10^4 cells/well. Disulfiram (DSF) and sodium aurothiomalate (ATM) were added at a fixed ratio of 1 : 1, formulated in a 30‐fold molar excess of 2HP‐β‐CD (2‐hydroxypropyl‐β‐cyclodextrin). ATM and DSF monotherapy was also done in the presence of 2HP‐β‐CD, to control for possible combination effects by 2HP‐β‐CD. All concentrations were applied in triplicate. After incubation at 37 °C for 72 h, CellTiter‐Blue (Promega) was added (10 μL/well). After incubation at 37 °C for 4 h, fluorescence (excitation filter: 550 nm, emission filter 590 nm) was determined in an Optima FLUOstar microplate reader (BMG Labtech). Mean values were calculated for each treatment and EC50 values were calculated from […] dose response curves.
Dose-Response Curves of ATM/DSF and 5
Figure S2: Dose-response curves of the s toichiometric mixture of ATM and DSF (blue) as well
as isolated 5 (red) for the treatment of Calu-6 cells (both in the presence of 30-fold excess of 2-
(also on this page, place not known: Normalized Proliferation (CellTiter-Blue) stoichiometric) […]

[1] = Solubility / solubilization in solvents and cyclodextrin (observations); format: physicochemical
HeLa = assay: Quantification of drug sensitivity (CellTiter-Blue), HeLa; format: cell-based; conditions: HeLa (cervix carcinoma), 72 h, 30-fold excess 2-hydroxypropyl-β-cyclodextrin, combination DSF/ATM 1:1
Procedure: as §1

HCT 116 = assay: Quantification of drug sensitivity (CellTiter-Blue), HCT 116; format: cell-based; conditions: HCT 116 (colon carcinoma), 72 h, 30-fold excess 2-hydroxypropyl-β-cyclodextrin, combination DSF/ATM 1:1
Procedure: as §1

MeWo = assay: Quantification of drug sensitivity (CellTiter-Blue), MeWo; format: cell-based; conditions: MeWo (melanoma), 72 h, 30-fold excess 2-hydroxypropyl-β-cyclodextrin, combination DSF/ATM 1:1
Procedure: as §1

SK-OV-3 = assay: Quantification of drug sensitivity (CellTiter-Blue), SK-OV-3; format: cell-based; conditions: SK-OV-3 (ovarian carcinoma), 72 h, 30-fold excess 2-hydroxypropyl-β-cyclodextrin, combination DSF/ATM 1:1
Procedure: as §1

HL-60 = assay: Quantification of drug sensitivity (CellTiter-Blue), HL-60; format: cell-based; conditions: HL-60 (non-T cell leukemia), 72 h, 30-fold excess 2-hydroxypropyl-β-cyclodextrin, combination DSF/ATM 1:1
Procedure: as §1

COLO-357 = assay: Quantification of drug sensitivity (CellTiter-Blue), COLO-357; format: cell-based; conditions: COLO-357 (pancreatic cancer), 72 h, 30-fold excess 2-hydroxypropyl-β-cyclodextrin, combination DSF/ATM 1:1
Procedure: as §1

[2] = system: mitochondrial ROS in H838 cells (roGFP2-Orp1); assay: ROS level in mitochondria, roGFP2-Orp1 sensor; format: cell-based; conditions: 12.5 μM, DMSO stock or up to 32-fold excess of SBE-β-CD
Procedure: (§2) Measurement of ROS levels in cytoplasm and mitochondria (Figure 8): The effects of 33 and auranofin on roGFP2‐Orp1 oxidation were quantified in H838 cells stably expressing roGFP2‐Orp1 targeted either to cytoplasm or mitochondria as described in Ezerina et al.[28] Specifically, a 5 mM stock solution of 33 was prepared by directly dissolving solid 33 into 10 mM, 40 mM, 80 mM, and 160 mM solutions of SBE‐β‐CD (Biomol) in PBS (Gibco). A 100 mM auranofin (Sigma‐Aldrich) solution was prepared in DMSO (Sigma‐Aldrich). This was further diluted to 0.5 mM stock solutions of auranofin in 0 mM, 4 mM, 8 mM, and 16 mM SBE‐β‐CD in PBS. […] Non‐transduced H838 cells were seeded on the same plate to establish background fluorescence. The fluorescence intensity from these wells was subtracted from all the measurement results. To establish the signal baseline, the entire plate was measured every 3 min for 8 cycles in a CLARIOstar fluorescence plate reader (BMG Labtech), with excitation wavelengths of 400 nm and 485 nm, while measuring emission at 520 nm. […] The readout of the roGFP2 measurement is normalized to the positive (1.0) and the negative (0) controls using the following equation: OxDroGFP2=(I400sampleI485red)-(I400redI485sample)/(I400sample)I485red-I485ox+(I485sampleI400ox-I400red)
(§3) where I400 and I485 are the signal intensities measured at 520 nm after excitation at 400 nm and 485 nm, respectively. […]

[3] = system: cytoplasmic ROS in H838 cells (roGFP2-Orp1); assay: ROS level in cytoplasm, roGFP2-Orp1 sensor; format: cell-based; conditions: 12.5 μM, DMSO stock or up to 32-fold excess of SBE-β-CD
Procedure: as §2, §3

In the case of [Au(N,N‐diethyl)dtc]2 [compound 5], the EC50 (Calu-6 cells) is reported as 1.6 µM, the “cyclodextrin required for solubilization” value [1] is reported as greater than 30 molar equivalents and the “solubility in common/organic solvents” value ([1]; organic solvents including DMSO, ambient temperature) is reported as “poor solubility”.
Molecule `CCN(CC)C(=S)SSC(=S)N(CC)CC` [DSF, disulfiram] has an EC50 (HeLa; Homo sapiens) of 320 µM, an EC50 (HCT 116; Homo sapiens) of 3.4 µM and an EC50 (MeWo; Homo sapiens) of 290 µM. The EC50 (SK-OV-3; Homo sapiens) was 340 µM, the EC50 (HL-60; Homo sapiens) was 120 µM and the EC50 (COLO-357; Homo sapiens, COLO357) was 82 µM. For the same molecule, the EC50 (Calu-6 cells; Homo sapiens) was 160 µM.
`O=C([O-])CC([S-])C(=O)[O-].[Au+].[Na+].[Na+]` (stereo not shown) [ATM, sodium aurothiomalate] gave an EC50 (HeLa) of 440 µM, an EC50 (HCT 116) of 140 µM and an EC50 (MeWo) of 130 µM. The EC50 (SK-OV-3) was 260 µM, the EC50 (HL-60) was 330 µM and the EC50 (COLO-357) was 96 µM. It also gave an EC50 (Calu-6 cells) of 360 µM.
With `CC(=O)OC[C@H]1O[C@@H]([S-])[C@H](OC(C)=O)[C@@H](OC(C)=O)[C@@H]1OC(C)=O.CCP(CC)CC.[Au+]` [auranofin] the “mitochondrial ROS (roGFP2-Orp1 oxidation)” value [2] was “high levels of ROS” and the “cytoplasmic ROS (roGFP2-Orp1 oxidation)” value [3] was “high levels of ROS”.
